Earlier results, collected in patent US20040258741A1, “Percutaneous absorption preparations” (priority 2001, published 2004).
Counter-ions that a name gives are not always drawn.

Key:
[1] = target: T1, AChE (Homo sapiens, UniProt P22303)
[2] = target: T1, AChE; conditions: in vitro
[3] = test system: intracranial ACh; conditions: in vivo

T1 sequence (P22303 32-614): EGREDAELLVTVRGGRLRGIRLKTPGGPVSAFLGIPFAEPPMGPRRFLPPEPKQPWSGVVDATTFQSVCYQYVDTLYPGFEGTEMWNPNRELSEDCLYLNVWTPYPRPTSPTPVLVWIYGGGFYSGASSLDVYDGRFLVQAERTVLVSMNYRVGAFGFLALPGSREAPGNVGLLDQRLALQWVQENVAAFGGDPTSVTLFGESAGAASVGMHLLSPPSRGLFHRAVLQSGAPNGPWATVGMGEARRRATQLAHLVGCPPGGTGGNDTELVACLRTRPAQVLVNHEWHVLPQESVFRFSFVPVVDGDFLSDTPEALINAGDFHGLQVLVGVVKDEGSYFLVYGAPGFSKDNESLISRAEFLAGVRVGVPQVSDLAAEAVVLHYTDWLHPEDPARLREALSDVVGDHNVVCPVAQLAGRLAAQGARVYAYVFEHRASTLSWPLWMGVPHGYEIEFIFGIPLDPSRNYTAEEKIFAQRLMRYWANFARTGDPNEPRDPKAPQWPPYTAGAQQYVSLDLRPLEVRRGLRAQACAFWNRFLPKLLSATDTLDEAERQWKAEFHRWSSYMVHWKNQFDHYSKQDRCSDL

Structure (SMILES) | in vitro AChE inhibition action compared with Donepezil [1] | AChE selectivity compared with tacrine [2] | intracranial ACh [3]
COc1cc2c(cc1OC)C(=O)C(F)(CC1CCN(Cc3cccc(F)c3)CC1)C2 (stereo not drawn) [ER-127528, 4-[(5,6-dimethoxy-2-fluoro-1-indanon)-2-yl]methyl-1-(3-fluorobenzyl)piperidine hydrochloride] | stronger in vitro AChE inhibition action than Donepezil | – | –
O=C(O)/C=C\C(=O)O.O=C1Cc2cc3c(CCC4CCN(Cc5ccccc5)CC4)noc3cc2N1 [Icopezil, 5,7-dihydro-3-[2-[1-(phenylmethyl)-4-piperidinyl]ethyl]-6H-pyrrolo-[4,5-f]-1,2-benzisoxazol-6-one maleate] | – | higher AChE selectivity than the existing AChE inhibitor tacrine | clearly increases intracranial ACh in vivo
